From US11180462B2, “Microbiocidal oxadiazole derivatives” (SYNGENTA PARTICIPATIONS AG, priority 2015, dated 2021)

Tests used:
[1] = tested on: Glomerella lagenarium (Colletotrichum lagenarium); test: Fungicidal activity against Glomerella lagenarium (Colletotrichum lagenarium) liquid culture / cucumber / preventative (anthracnose); format: cell-based; conditions: Colletotrichum orbiculare; 20 ppm in the applied formulation; liquid culture (PDB), growth inhibition measured photometrically after 3 to 4 days; compared to untreated control; read-out: disease control
Outline: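 Photometric read-out of fungal growth after 2–7 days, expressed as percent antifungal activity versus untreated check. Cryo-stored conidia in PDB; compound at 20 ppm; dark, 24 °C, 96% RH.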

[2] = tested on: Phakopsora Pachyrhizi; test: Fungicidal activity against Phakopsora pachyrhizi / soybean / leaf disc preventative (Asian soybean rust); format: in vivo; conditions: foliar, 200 ppm in the applied formulation, soybean leaf disks, compared to untreated control leaf disks, read-out: disease control
Outline: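 Preventative soybean leaf-disc test: discs on water agar sprayed with diluted formulated compound, inoculated one day later with spores on the lower surface. Held 24–36 h dark at 20°C, 75% rh, then 12 h light/day; percent disease control versus untreated discs scored 12–14 days after application.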

[3] = tested on: Puccinia recondita f. Sp. Tritici; test: Fungicidal activity against Puccinia recondita f. sp. tritici / wheat / leaf disc curative (brown rust); format: in vivo; conditions: foliar, 24 h, 200 ppm in the applied formulation, wheat leaf segments, curative (applied 1 day after inoculation), compared to untreated control leaf disks, read-out: disease control
Outline: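 Curative test on wheat leaf segments (cv. Kanzler) on agar, inoculated with spore suspension and held dark at 19° C, 75% RH; formulated compound in water applied 1 day after inoculation. Incubated at 19° C, 75% RH, 12 h light/12 h dark; percent disease control versus untreated scored 6 to 8 days after application.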

[4] = tested on: Puccinia recondita f. Sp. Tritici; test: Fungicidal activity against Puccinia recondita f. sp. tritici / wheat / leaf disc preventative (brown rust); format: in vivo; conditions: foliar, 200 ppm in the applied formulation, wheat leaf segments, preventative, compared to untreated control leaf disks, read-out: disease control
Outline: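 Compound application precedes infection: segments of wheat cv. Kanzler, sprayed at 200 ppm, are inoculated with a spore suspension after 1 day. Incubation is at 19° C. with 75% relative humidity and 12 h light/12 h darkness, and control versus untreated leaves is rated 7 to 9 days post-application.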

CC1CC1C(=O)N(O)Cc1ccc(-c2noc(C(F)(F)F)n2)cc1 (centres unmarked) [Compound 1.763, N-hydroxy-2-methyl-N-[[4-[5-(trifluoromethyl)-1,2,4-oxadiazol-3-yl]phenyl]methyl]-cyclopropane-carboxamide]
≥ 80%: inhibition of growth at 20 ppm [1] | pest or weed control at 200 ppm [2] | pest or weed control at 200 ppm [3] | pest or weed control at 200 ppm [4]

CC1(C(=O)N(O)Cc2ccc(-c3noc(C(F)(F)F)n3)cc2)CC1 [Compound 1.764, N-hydroxy-1-methyl-N-[[4-[5-(trifluoromethyl)-1,2,4-oxadiazol-3-yl]phenyl]methyl]-cyclopropane-carboxamide]
≥ 80%: inhibition of growth at 20 ppm [1] | pest or weed control at 200 ppm [2] | pest or weed control at 200 ppm [3] | pest or weed control at 200 ppm [4]

CCC(C)C(=O)N(O)Cc1ccc(-c2noc(C(F)(F)F)n2)cc1 (centres unmarked) [Compound 1.765, N-hydroxy-2-methyl-N-[[4-[5-(trifluoromethyl)-1,2,4-oxadiazol-3-yl]phenyl]methyl]-butanamide]
≥ 80%: inhibition of growth at 20 ppm [1] | pest or weed control at 200 ppm [2] | pest or weed control at 200 ppm [3] | pest or weed control at 200 ppm [4]

CC1(C(=O)N(O)Cc2ccc(-c3noc(C(F)(F)F)n3)cc2)COC1 [Compound 1.766, N-hyd roxy-3-methyl-N-[[4-[5-(trifluoromethyl)-1,2,4-oxadiazol-3-yl]phenyl]methyl]-oxetane-3-c arboxamide]
≥ 80%: inhibition of growth at 20 ppm [1] | pest or weed control at 200 ppm [2] | pest or weed control at 200 ppm [3] | pest or weed control at 200 ppm [4]

CCC(COC)C(=O)N(O)Cc1ccc(-c2noc(C(F)(F)F)n2)cc1 (centres unmarked) [Compound 1.768, N-hydroxy-2-(methoxymethyl)-N-[[4-[5-(trifluoromethyl)-1,2,4-oxadiazol-3-yl]phenyl]methyl]-butanamide]
≥ 80%: inhibition of growth at 20 ppm [1] | pest or weed control at 200 ppm [2] | pest or weed control at 200 ppm [3] | pest or weed control at 200 ppm [4]

COCCCC(=O)N(O)Cc1ccc(-c2noc(C(F)(F)F)n2)cc1 [Compound 1.769, N-hydroxy-4-methoxy-N-[[4-[5-(trifluoromethyl)-1,2,4-oxadiazol-3-yl]phenyl]methyl]-butanamide]
≥ 80%: inhibition of growth at 20 ppm [1] | pest or weed control at 200 ppm [2] | pest or weed control at 200 ppm [3] | pest or weed control at 200 ppm [4]

O=C(C1CCCO1)N(O)Cc1ccc(-c2noc(C(F)(F)F)n2)cc1 (centres unmarked) [Compound 1.770, N-hydroxy-N-[[4-[5-(trifluoromethyl)-1,2,4-oxadiazol-3-yl]phenyl]methyl]-tetrahydrofuran-2-carboxamide]
≥ 80%: inhibition of growth at 20 ppm [1] | pest or weed control at 200 ppm [2] | pest or weed control at 200 ppm [3] | pest or weed control at 200 ppm [4]

N#CCC(=O)N(O)Cc1ccc(-c2noc(C(F)(F)F)n2)cc1 [Compound 1.771, 2-cyano-N-hydroxy-N-[[4-[5-(trifluoromethyl)-1,2,4-oxadiazol-3-yl]phenyl]methyl]-acetamide]
≥ 80%: inhibition of growth at 20 ppm [1] | pest or weed control at 200 ppm [2] | pest or weed control at 200 ppm [3] | pest or weed control at 200 ppm [4]

COC(C)C(=O)N(O)Cc1ccc(-c2noc(C(F)(F)F)n2)cc1 (centres unmarked) [Compound 1.772, N-hydroxy-2-methoxy-N-[[4-[5-(trifluoromethyl)-1,2,4-oxadiazol-3-yl]phenyl]methyl]-propanamide]
≥ 80%: inhibition of growth at 20 ppm [1] | pest or weed control at 200 ppm [2] | pest or weed control at 200 ppm [3] | pest or weed control at 200 ppm [4]

CC(=O)N(O)Cc1ccc(-c2noc(C(F)(F)F)n2)cc1 [Compound 1.773, N-hydroxy-N-[[4-[5-(trifluoromethyl)-1,2,4-oxadiazol-3-yl]phenyl]methyl]-acetamide]
≥ 80%: inhibition of growth at 20 ppm [1] | pest or weed control at 200 ppm [2] | pest or weed control at 200 ppm [3] | pest or weed control at 200 ppm [4]

O=C(CC1CC1)N(O)Cc1ccc(-c2noc(C(F)(F)F)n2)cc1 [Compound 1.774, 2-cyclopropyl-N-hydroxy-N-[[4-[5-(trifluoromethyl)-1,2,4-oxadiazol-3-yl]phenyl]methyl]-acetamide]
≥ 80%: inhibition of growth at 20 ppm [1] | pest or weed control at 200 ppm [2] | pest or weed control at 200 ppm [3] | pest or weed control at 200 ppm [4]

O=C(CC1CC1)ON(Cc1ccc(-c2noc(C(F)(F)F)n2)cc1)C(=O)CC1CC1 [Compound 1.775, [(2-cyclo-propylacetyl)-[[4-[5-(trifluoromethyl)-1,2,4-oxadiazol-3-yl]phenyl]methyl]-amino] 2-cyclopropylacetale]
≥ 80%: inhibition of growth at 20 ppm [1] | pest or weed control at 200 ppm [2] | pest or weed control at 200 ppm [3] | pest or weed control at 200 ppm [4]

CC(=O)ON(Cc1ccc(-c2noc(C(F)(F)F)n2)cc1)C(C)=O [Compound 1.776, (acetyl-[[4-[5-(trifluoromethyl)-1,2,4-oxadiazol-3-yl]phenyl]methyl]-amino] acetate]
≥ 80%: inhibition of growth at 20 ppm [1] | pest or weed control at 200 ppm [2] | pest or weed control at 200 ppm [3] | pest or weed control at 200 ppm [4]

COCC(=O)N(Cc1ccc(-c2noc(C(F)(F)F)n2)cc1)C1CC1 [Compound 1.777, N-cyclopropyl-2-methoxy-N-[[4-[5-(trifluoromethyl)-1,2,4-oxadiazol-3-yl]phenyl]methyl]-acetamide]
≥ 80%: inhibition of growth at 20 ppm [1] | pest or weed control at 200 ppm [2] | pest or weed control at 200 ppm [3] | pest or weed control at 200 ppm [4]

CON(Cc1ccc(-c2noc(C(F)(F)F)n2)cc1)C(=O)CO [Compound 1.778, 2-hydroxy-N-methoxy-N-[[4-[5-(trifluoromethyl)-1,2,4-oxadiazol-3-yl]phenyl]methyl]-acetamide]
≥ 80%: inhibition of growth at 20 ppm [1] | pest or weed control at 200 ppm [2] | pest or weed control at 200 ppm [3] | pest or weed control at 200 ppm [4]

CON(Cc1ccc(-c2noc(C(F)(F)F)n2)cc1)C(=O)C(C)(C)OC [Compound 1.779, N,2-dimethoxy-2-methyl-N-[[4-[5-(trifluoromethyl)-1,2,4-oxadiazol-3-yl]phenyl]methyl]-propanamide]
≥ 80%: inhibition of growth at 20 ppm [1] | pest or weed control at 200 ppm [2] | pest or weed control at 200 ppm [3] | pest or weed control at 200 ppm [4]

CN(Cc1ccc(-c2noc(C(F)(F)F)n2)cc1)C(=O)C(C)(C)O [Compound 1.781, 2-hydroxy-N,2-dimethyl-N-[[4-[5-(trifluoromethyl)-1,2,4-oxadiazol-3-yl]phenyl]methyl]-propanamide]
≥ 80%: inhibition of growth at 20 ppm [1] | pest or weed control at 200 ppm [2] | pest or weed control at 200 ppm [3] | pest or weed control at 200 ppm [4]

COC(C)(C)C(=O)N(C)Cc1ccc(-c2noc(C(F)(F)F)n2)cc1 [Compound 1.782, 2-methoxy-N,2-dimethyl-N-[[4-[5-(trifluoromethyl)-1,2,4-oxadiazol-3-yl]phenyl]methyl]-propanamide]
≥ 80%: inhibition of growth at 20 ppm [1] | pest or weed control at 200 ppm [2] | pest or weed control at 200 ppm [3] | pest or weed control at 200 ppm [4]

COC(C)C(=O)N(Cc1ccc(-c2noc(C(F)(F)F)n2)c(F)c1)OC (centres unmarked) [Compound 1.783, N-[[3-fluoro-4-[5-(trifluoromethyl)-1,2,4-oxadiazol-3-yl]phenyl]methyl]-N,2-dimethoxy-propanamide]
≥ 80%: inhibition of growth at 20 ppm [1] | pest or weed control at 200 ppm [2] | pest or weed control at 200 ppm [3] | pest or weed control at 200 ppm [4]

CON(Cc1ccc(-c2noc(C(F)(F)F)n2)cc1)C(=O)C(C)(C)O [Compound 1.784, 2-hydroxy-N-methoxy-2-methyl-N-[[4-[5-(trifluoromethyl)-1,2,4-oxadiazol-3-yl]phenyl]methyl]-propanamide]
≥ 80%: inhibition of growth at 20 ppm [1] | pest or weed control at 200 ppm [2] | pest or weed control at 200 ppm [3] | pest or weed control at 200 ppm [4]

CON(Cc1ccc(-c2noc(C(F)(F)F)n2)cc1)C(=O)C(C)O (centres unmarked) [Compound 1.786, 2-hydroxy-N-methoxy-N-[[4-[5-(trifluoromethyl)-1,2,4-oxadiazol-3-yl]phenyl]methyl]-propanamide]
≥ 80%: inhibition of growth at 20 ppm [1] | pest or weed control at 200 ppm [2] | pest or weed control at 200 ppm [3] | pest or weed control at 200 ppm [4]

CCCOC(=O)N(Cc1ccc(-c2noc(C(F)(F)F)n2)cc1)OC [Compound 2.4, propyl N-methoxy-N-[[4-[5-(trifluoromethyl)-1,2,4-oxadiazol-3-yl]phenyl]methyl]-carbamate]
≥ 80%: inhibition of growth at 20 ppm [1] | pest or weed control at 200 ppm [2] | pest or weed control at 200 ppm [3] | pest or weed control at 200 ppm [4]

COC(=O)ON(Cc1ccc(-c2noc(C(F)(F)F)n2)cc1)C(=O)OC [Compound 2.25, [methoxycarbonyl-[[4-[5-(trifluoromethyl)-1,2,4-oxadiazol-3-yl]phenyl]methyl]-amino]methyl carbonate]
≥ 80%: inhibition of growth at 20 ppm [1] | pest or weed control at 200 ppm [2] | pest or weed control at 200 ppm [3] | pest or weed control at 200 ppm [4]
